The source made the active and inactive calls. No rule for the calls is given here.
System: CCRIS mutagenicity, Ames/micronucleus/aberration tests
Experiment: CCRIS mutagenicity studies

Measured: mutagenic call

CCN(CC)c1ccccc1
inactive: Test System: AMES SALMONELLA TYPHIMURIUM, Strain/Indicator: TA97, Metabolic Activation: HAMSTER, LIVER, S-9, AROCLOR 1254 (10 OR 30%), Method: PREINCUBATION inactive; negative | Test System: AMES SALMONELLA TYPHIMURIUM, Strain/Indicator: TA97, Metabolic Activation: NONE, Method: PREINCUBATION inactive; negative | Test System: AMES SALMONELLA TYPHIMURIUM, Strain/Indicator: TA97, Metabolic Activation: RAT, LIVER, S-9, AROCLOR 1254 (10 OR 30%), Method: PREINCUBATION inactive; negative | Test System: AMES SALMONELLA TYPHIMURIUM, Strain/Indicator: TA98, Metabolic Activation: HAMSTER, LIVER, S-9, AROCLOR 1254 (10 OR 30%), Method: PREINCUBATION inactive; negative | Test System: AMES SALMONELLA TYPHIMURIUM, Strain/Indicator: TA98, Metabolic Activation: HAMSTER, LIVER, S-9, PHENOBARBITAL AND BETA-NAPHTHOFLAVONE, Method: PREINCUBATION inactive; negative | Test System: AMES SALMONELLA TYPHIMURIUM, Strain/Indicator: TA98, Metabolic Activation: NONE, Method: PREINCUBATION inactive; negative | Test System: AMES SALMONELLA TYPHIMURIUM, Strain/Indicator: TA98, Metabolic Activation: RAT, LIVER, S-9, AROCLOR 1254 (10 OR 30%), Method: PREINCUBATION inactive; negative | Test System: AMES SALMONELLA TYPHIMURIUM, Strain/Indicator: TA100, Metabolic Activation: HAMSTER, LIVER, S-9, AROCLOR 1254 (10 OR 30%), Method: PREINCUBATION inactive; negative | Test System: AMES SALMONELLA TYPHIMURIUM, Strain/Indicator: TA100, Metabolic Activation: HAMSTER, LIVER, S-9, PHENOBARBITAL AND BETA-NAPHTHOFLAVONE, Method: PREINCUBATION inactive; negative | Test System: AMES SALMONELLA TYPHIMURIUM, Strain/Indicator: TA100, Metabolic Activation: NONE, Method: PREINCUBATION inactive; negative | Test System: AMES SALMONELLA TYPHIMURIUM, Strain/Indicator: TA100, Metabolic Activation: RAT, LIVER, S-9, AROCLOR 1254 (10 OR 30%), Method: PREINCUBATION inactive; negative | Test System: AMES SALMONELLA TYPHIMURIUM, Strain/Indicator: TA102, Metabolic Activation: HAMSTER, LIVER, S-9, PHENOBARBITAL AND BETA-NAPHTHOFLAVONE, Method: PREINCUBATION inactive; negative | Test System: AMES SALMONELLA TYPHIMURIUM, Strain/Indicator: TA102, Metabolic Activation: NONE, Method: PREINCUBATION inactive; negative | Test System: AMES SALMONELLA TYPHIMURIUM, Strain/Indicator: TA104, Metabolic Activation: HAMSTER, LIVER, S-9, PHENOBARBITAL AND BETA-NAPHTHOFLAVONE, Method: PREINCUBATION inactive; negative | Test System: AMES SALMONELLA TYPHIMURIUM, Strain/Indicator: TA104, Metabolic Activation: NONE, Method: PREINCUBATION inactive; negative | Test System: AMES SALMONELLA TYPHIMURIUM, Strain/Indicator: TA1535, Metabolic Activation: HAMSTER, LIVER, S-9, AROCLOR 1254 (10 OR 30%), Method: PREINCUBATION inactive; negative | Test System: AMES SALMONELLA TYPHIMURIUM, Strain/Indicator: TA1535, Metabolic Activation: HAMSTER, LIVER, S-9, PHENOBARBITAL AND BETA-NAPHTHOFLAVONE, Method: PREINCUBATION inactive; negative | Test System: AMES SALMONELLA TYPHIMURIUM, Strain/Indicator: TA1535, Metabolic Activation: NONE, Method: PREINCUBATION inactive; negative | Test System: AMES SALMONELLA TYPHIMURIUM, Strain/Indicator: TA1535, Metabolic Activation: RAT, LIVER, S-9, AROCLOR 1254 (10 OR 30%), Method: PREINCUBATION inactive; negative | Test System: AMES SALMONELLA TYPHIMURIUM, Strain/Indicator: TA1537, Metabolic Activation: HAMSTER, LIVER, S-9, PHENOBARBITAL AND BETA-NAPHTHOFLAVONE, Method: PREINCUBATION inactive; negative | Test System: AMES SALMONELLA TYPHIMURIUM, Strain/Indicator: TA1537, Metabolic Activation: NONE, Method: PREINCUBATION inactive; negative | Test System: E. COLI, Strain/Indicator: WP2UVRA/PKM101, Metabolic Activation: HAMSTER, LIVER, S-9, PHENOBARBITAL AND BETA-NAPHTHOFLAVONE, Method: PREINCUBATION inactive; negative | Test System: E. COLI, Strain/Indicator: WP2UVRA/PKM101, Metabolic Activation: NONE, Method: PREINCUBATION inactive; negative | Test System: E. COLI, Strain/Indicator: WP2UVRA, Metabolic Activation: HAMSTER, LIVER, S-9, PHENOBARBITAL AND BETA-NAPHTHOFLAVONE, Method: PREINCUBATION inactive; negative | Test System: E. COLI, Strain/Indicator: WP2UVRA, Metabolic Activation: NONE, Method: PREINCUBATION inactive; negative | Test System: UDS RODENT HEPATOCYTES, Strain/Indicator: THY INCORP (NON-S-PHASE), Metabolic Activation: NONE, Method: AUTORADIOGRAPHY inactive; negative

O=[N+]([O-])O.O=[N+]([O-])O.[O]=[U]=[O]
inactive: End Point: In vitro micronucleus, Test System: Rat kidney (NRK-52E) cells, Metabolic Activation: None inactive; negative; depleted uranium tested

From PubChem BioAssay AID1259407 (Chemical Carcinogenesis Research Information System (CCRIS), 2018)
